Results published in US20100144793A1, “NOVEL COMPOUNDS FOR THE TREATMENT OF DISEASES ASSOCIATED WITH AMYLOID OR AMYLOID-LIKE PROTEINS” (AC IMMUNE SA, priority 2006, published 2010).
Counter-ions that a name gives are not always drawn. Like-named read-outs stand apart in the source and are kept apart here.

Columns and labels:
Format in all cases: biochemical
[1] = molecular target: T1, preformed Aβ1-42 fibers (Homo sapiens, UniProt P05067); experiment: Thioflavin T spectrofluorescence assay: disaggregation of preformed Aβ1-42 fibers; conditions: Table 5; 330 μM small molecule, 10:1 molar ratio to pre-aggregated Aβ1-42, additional 24 h at 37° C.; mean ± SD of two independent experiments
T1 construct: Aβ1-42 lyophilized powder (Bachem) was reconstituted in hexafluoroisopropanol (HFIP) to 1 mM; purchased Bachem
T1 sequence (P05067 672-713 limits assumed): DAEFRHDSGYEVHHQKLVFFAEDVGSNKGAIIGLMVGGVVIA
Method: (§1) The objective of this example was to evaluate the capacity of the compounds of the invention to inhibit the aggregation of (Aβ)1-42 peptide and to disaggregate pre-aggregated Aβ1-42 using a thioflavin T spectrofluorescence assay.
(§2) Aβ1-42 lyophilized powder (Bachem) was reconstituted in hexafluoroisopropanol (HFIP) to 1 mM. The peptide solution was sonicated for 15 min at room temperature, agitated overnight, and aliquots were placed into non-siliconized microcentrifuge tubes. The HFIP was then evaporated under a stream of argon. The resulting peptide film was dried under vacuum for 10 min, tightly sealed and stored at −80° C. until used.
This solution was then allowed to aggregate at 37° C. for 24 h after which a small molecule and ThT were added to obtain a final concentration of 330 μM small molecule and 10 μM ThT. […] This solution was then incubated for additional 24 h at 37° C. The spectrofluorescence was then measured and % disaggregation calculated. Disaggregation is expressed as mean % disaggregation±1 standard deviation (SD) according to the same equation as for the inhibition of aggregation.

[2] = molecular target: T2, Oregon Green labeled Aβ(1-42) (Homo sapiens, UniProt P05067); experiment: FCS-assay with 5 nM Oregon Green labeled Aβ-peptide (disaggregation of preformed aggregates)
T2 construct: DMSO-stock solutions of Oregon Green labeled Aβ(1-42) 1:1 with deionized water
T2 sequence (P05067 672-713 limits assumed): as above
Method: In order to analyse the disaggregating properties of the compounds, preformed aggregates were used, which were induced straight before the FCS-measurement by diluting low concentrated (500 nM) DMSO-stock solutions of Oregon Green labeled Aβ(1-42) 1:1 with deionized water. The final concentration of Oregon Green labeled Aβ-peptide was 5 nM in 1×PBS and 3% DMSO.
To improve the reproducibility of the measurements of the concentration dependencies all samples were prepared fourfold.

[3] = molecular target: T3, Aβ1-42 (Homo sapiens, UniProt P05067); experiment: Thioflavin T spectrofluorescence assay: inhibition of Aβ1-42 aggregation; conditions: 24 h
T3 construct: Aβ1-42 lyophilized powder (Bachem) was reconstituted in hexafluoroisopropanol (HFIP) to 1 mM; purchased Bachem
T3 sequence (P05067 672-713 limits assumed): as above
Method: as §1, §2
Aβ1-42 peptide film was dissolved in DMSO to reach 400 μM. Assay solution in PBS was prepared in non-siliconized incubation tubes to reach the following concentrations: 330 μM small molecule, 33 μM Aβ1-42, 10 μM thioflavin T (ThT), and 12.8% DMSO. Therefore, the final molar ratio of small molecule to Aβ1-42 was 10:1. A positive control without a small molecule was prepared to measure maximum RFU. A negative control without Aβ1-42 was prepared for each small molecule. 3-aminopyrazole trimer (Trimer) was tested in all assays to ascertain reproducibility between independent experiments. The solutions were then incubated for 24 h at 37° C., and the spectrofluorescence (relative fluorescence units; RFU) read in six replicates in black 384-well assay plates (Perkin-Elmer) on a Perkin-Elmer FluoroCount spectrofluorometer. Inhibition of aggregation is expressed as mean % inhibition±1 standard deviation (SD) according to the following equation: […]

[4] = read-out: Percentage of the “number of peaks” value compared to the control reaction without added ligand
[5] = read-out: Percentage of the “peaks × height“ value compared to the control reaction without added ligand

| SMILES | % disaggregation [1] | remaining activity at 0.01 µM [2, 4] | remaining activity at 0.1 µM [2, 4] | remaining activity at 0.2 µM [2, 4] | remaining activity at 1 µM [2, 4] | remaining activity at 5 µM [2, 4] | remaining activity at 25 µM [2, 4] | remaining activity at 100 µM [2, 4] | remaining activity at 0.01 µM [2, 5] | remaining activity at 0.1 µM [2, 5] | remaining activity at 0.2 µM [2, 5] | remaining activity at 1 µM [2, 5] | remaining activity at 5 µM [2, 5] | remaining activity at 25 µM [2, 5] | remaining activity at 100 µM [2, 5] | inhibition at 330 µM [3] |
| --- | --- | --- | --- | --- | --- | --- | --- | --- | --- | --- | --- | --- | --- | --- | --- | --- |
| Clc1ccc(-c2cc(NCCNc3cc(-c4cccs4)[nH]n3)n[nH]2)cc1 [Compound 1ah, N-(5-(4-Chlorophenyl)-1H-pyrazol-3-yl)-N′-(5-(thiophen-2-yl)-1H-pyrazol-3-yl)ethane-1,2-diamine bishydrochloride] | 88.8 ± 1.6% | 44.4% | 61.1% | 60.8% | 83.7% | 82.6% | 75% | 40.9% | 38.9% | 44.8% | 69.3% | 136% | 112% | 254% | 143% | 89.1 ± 2.5% |
| Cc1ccc(-c2cc(NCCNc3cc(-c4ccc(C)cc4)[nH]n3)n[nH]2)cc1 [Compound 1d, N^1,N^2-bis(5-p-Tolyl-1H-pyrazol-3-yl)ethane-1,2-diamine bishydrochloride] | 77.1 ± 2.5% |  |  | 72.8% |  |  |  |  |  |  | 83.1% |  |  |  |  | 88.3 ± 1% |
| Cc1ccc(-c2cc(NCCNc3cc(-c4cccs4)[nH]n3)n[nH]2)cc1 [Compound 1ab, N-(5-(Thiophen-2-yl)-1H-pyrazol-3-yl)-N′-(5-p-tolyl-1H-pyrazol-3-yl)ethane-1,2-diamine bishydrochloride] | 78.0 ± 4.5% | 55.6% | 54.2% |  |  |  |  |  | 27% | 51.4% |  |  |  |  |  | 85 ± 8.6% |
| Brc1ccc(-c2cc(NCCNc3cc(-c4ccc(Br)cc4)[nH]n3)n[nH]2)cc1 [Compound 1u, N^1,N^2-bis(5-(4-Bromophenyl)-1H-pyrazol-3-yl)ethane-1,2-diamine bishydrochloride] | 78.8 ± 5.1% |  |  | 58% | 60% | 47.5% | 45% | 35% |  |  | 59.2% | 62.4% | 48% | 49.2% | 27.2% | 77.2 ± 1.5% |
| Clc1ccc(-c2cc(NCCNc3cc(-c4ccc(Cl)cc4)[nH]n3)n[nH]2)cc1 [Compound 1f, N^1,N^2-bis(5-(4-Chlorophenyl)-1H-pyrazol-3-yl)ethane-1,2-diamine bishydrochloride] | 78.4 ± 1.7% |  |  | 55.9% |  |  |  |  |  |  | 101% |  |  |  |  | 86.5 ± 7.4% |
